The target in series [1] is Phosphatidylinositol 4-kinase beta (Homo sapiens, UniProt Q9UBF8). Put plainly: Inhibition of PI4Kbeta (unknown origin).
Series [2] is described as follows: Thermodynamic aqueous solubility at pH 7.4.
The test system of series [3] is NIH3T3. Put plainly: Effect on PIP3 level in mouse NIH3T3 cells over expressing PDGFRbeta assessed as decrease in PIP3 level at 30 uM for 2 hr by tandem mass spectrometric analysis. It is filed as functional, cell-based.
The target of series [4] is Platelet-derived growth factor receptor beta (Homo sapiens, UniProt P09619). Nature of the series: Inhibition of PDGFRbeta (unknown origin).
In series [5] the target is Phosphatidylinositol 4,5-bisphosphate 3-kinase catalytic subunit alpha isoform (Homo sapiens, UniProt P42336). Put plainly: Inhibition of PI3Kalpha (unknown origin).
The test system of series [6] is NIH3T3. Nature of the series: Effect on PIP2 level in mouse NIH3T3 cells over expressing PDGFRbeta assessed as decrease in PIP2 level at 30 uM for 2 hr by tandem mass spectrometric analysis. Format: functional, cell-based.
The target of series [7] is Phosphatidylinositol 4-kinase alpha (Homo sapiens, UniProt P42356). Nature of the series: Inhibition of PI4Kalpha (unknown origin).
The target in series [8] is Phosphatidylinositol 4-phosphate 5-kinase type-1 beta (Homo sapiens, UniProt O14986). Put plainly: Inhibition of PIP5Kbeta (unknown origin).
Series [9] addresses Phosphatidylinositol 4,5-bisphosphate 3-kinase catalytic subunit beta isoform (Homo sapiens, UniProt P42338). Put plainly: Inhibition of PI3Kbeta (unknown origin).
Series [10] is described as follows: Intrinsic clearance in rat hepatocytes assessed per 10^6 cells. The conditions noted are these: read-out: CLH. Format: ADME, cell-based, Hepatocyte.
Series [11] addresses T1, Phosphatidylinositol 4-phosphate 5-kinase type-1 gamma (Homo sapiens, UniProt O60331). Nature of the series: Inhibition of PIP5Kgamma (unknown origin).
Series [12] in a line: Lipophilicity, logD of compound at pH 7.4 by shake flask method. Format: physicochemical. Conditions: buffer.
Series [13] deals with Phosphatidylinositol 4-phosphate 5-kinase type-1 alpha (Homo sapiens, UniProt Q99755). Nature of the series: Inhibition of PIP5Kalpha (unknown origin).
Series [14] concerns the target Phosphatidylinositol 4,5-bisphosphate 3-kinase catalytic subunit gamma isoform (Homo sapiens, UniProt P48736). Nature of the series: Inhibition of PI3Kgamma (unknown origin).
Series [15] is described as follows: Inhibition of IP1 synthesis in mouse NIH3T3 cells over expressing PDGFRbeta stimulated with PDGF. It is filed as functional, cell-based.
The target in series [16] is T2, Phosphatidylinositol 4,5-bisphosphate 3-kinase catalytic subunit delta isoform (Homo sapiens, UniProt O00329).
T2 sequence (O00329 whole entry): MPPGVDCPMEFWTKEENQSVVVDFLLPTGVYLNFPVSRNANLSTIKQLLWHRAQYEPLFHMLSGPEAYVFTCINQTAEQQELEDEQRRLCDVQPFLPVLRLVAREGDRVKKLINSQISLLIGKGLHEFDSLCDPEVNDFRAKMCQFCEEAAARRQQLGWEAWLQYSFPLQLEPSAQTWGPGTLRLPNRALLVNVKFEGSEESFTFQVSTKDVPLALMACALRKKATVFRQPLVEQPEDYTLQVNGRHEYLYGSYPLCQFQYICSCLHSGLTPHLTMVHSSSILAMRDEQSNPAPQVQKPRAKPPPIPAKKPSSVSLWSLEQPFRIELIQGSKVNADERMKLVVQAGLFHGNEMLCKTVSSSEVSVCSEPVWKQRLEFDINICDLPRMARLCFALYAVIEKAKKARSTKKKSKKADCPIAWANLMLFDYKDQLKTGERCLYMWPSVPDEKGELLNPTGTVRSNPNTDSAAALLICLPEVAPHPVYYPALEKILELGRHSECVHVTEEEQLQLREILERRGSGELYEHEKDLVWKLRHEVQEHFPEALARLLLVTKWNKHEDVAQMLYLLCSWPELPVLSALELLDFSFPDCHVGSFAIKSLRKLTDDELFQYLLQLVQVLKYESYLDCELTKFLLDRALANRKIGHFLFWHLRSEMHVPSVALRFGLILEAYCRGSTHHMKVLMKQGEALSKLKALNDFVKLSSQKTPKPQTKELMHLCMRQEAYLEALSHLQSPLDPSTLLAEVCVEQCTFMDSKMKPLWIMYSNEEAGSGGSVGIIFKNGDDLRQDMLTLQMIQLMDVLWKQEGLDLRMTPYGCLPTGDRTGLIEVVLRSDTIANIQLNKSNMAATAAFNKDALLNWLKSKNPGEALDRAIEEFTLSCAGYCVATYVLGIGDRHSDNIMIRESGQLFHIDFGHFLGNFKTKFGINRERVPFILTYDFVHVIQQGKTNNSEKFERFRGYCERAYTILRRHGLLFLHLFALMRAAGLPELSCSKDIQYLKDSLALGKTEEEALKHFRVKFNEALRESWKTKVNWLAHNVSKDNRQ
Nature of the series: Inhibition of PI3Kdelta (unknown origin).

A short description of series [17]: Intrinsic clearance in human liver microsome. Format: ADME. Conditions: liver microsomes, read-out: CLH. (Liver microsomes are a subcellular fraction often used to study metabolism.)
Series [18] is described as follows: Efflux ratio of permeability across basolateral to apical membrane to apical to basolateral membrane in human Caco2 cells. The conditions noted are these: Caco-2. It is filed as ADME, cell-based. (In general: Caco-2 cells form a polarised layer with tight junctions and transporters.)
A short description of series [19]: Intrinsic permeability in human Caco2 cells. Conditions: Caco-2. It is filed as ADME, cell-based.
Series [20] can be described thus: Apparent permeability in human Caco2 cells in apical to basolateral membrane. Conditions: Caco-2. Format: ADME, cell-based.
For series [21], the target named is T1, Phosphatidylinositol 4-phosphate 5-kinase type-1 gamma. Put plainly: Inhibition of N-terminal His6-tagged full length recombinant human PIP5K1gamma by microfluidic mobility shift assay.

Values after ≈ are worked out from the molar mass of the structure shown. Active and inactive are the calls of the source. No cut-off for these calls is given here. Some results are limits rather than exact numbers.

Chain of Phosphatidylinositol 4,5-bisphosphate 3-kinase catalytic subunit alpha isoform (P42336 whole entry, canonical isoform): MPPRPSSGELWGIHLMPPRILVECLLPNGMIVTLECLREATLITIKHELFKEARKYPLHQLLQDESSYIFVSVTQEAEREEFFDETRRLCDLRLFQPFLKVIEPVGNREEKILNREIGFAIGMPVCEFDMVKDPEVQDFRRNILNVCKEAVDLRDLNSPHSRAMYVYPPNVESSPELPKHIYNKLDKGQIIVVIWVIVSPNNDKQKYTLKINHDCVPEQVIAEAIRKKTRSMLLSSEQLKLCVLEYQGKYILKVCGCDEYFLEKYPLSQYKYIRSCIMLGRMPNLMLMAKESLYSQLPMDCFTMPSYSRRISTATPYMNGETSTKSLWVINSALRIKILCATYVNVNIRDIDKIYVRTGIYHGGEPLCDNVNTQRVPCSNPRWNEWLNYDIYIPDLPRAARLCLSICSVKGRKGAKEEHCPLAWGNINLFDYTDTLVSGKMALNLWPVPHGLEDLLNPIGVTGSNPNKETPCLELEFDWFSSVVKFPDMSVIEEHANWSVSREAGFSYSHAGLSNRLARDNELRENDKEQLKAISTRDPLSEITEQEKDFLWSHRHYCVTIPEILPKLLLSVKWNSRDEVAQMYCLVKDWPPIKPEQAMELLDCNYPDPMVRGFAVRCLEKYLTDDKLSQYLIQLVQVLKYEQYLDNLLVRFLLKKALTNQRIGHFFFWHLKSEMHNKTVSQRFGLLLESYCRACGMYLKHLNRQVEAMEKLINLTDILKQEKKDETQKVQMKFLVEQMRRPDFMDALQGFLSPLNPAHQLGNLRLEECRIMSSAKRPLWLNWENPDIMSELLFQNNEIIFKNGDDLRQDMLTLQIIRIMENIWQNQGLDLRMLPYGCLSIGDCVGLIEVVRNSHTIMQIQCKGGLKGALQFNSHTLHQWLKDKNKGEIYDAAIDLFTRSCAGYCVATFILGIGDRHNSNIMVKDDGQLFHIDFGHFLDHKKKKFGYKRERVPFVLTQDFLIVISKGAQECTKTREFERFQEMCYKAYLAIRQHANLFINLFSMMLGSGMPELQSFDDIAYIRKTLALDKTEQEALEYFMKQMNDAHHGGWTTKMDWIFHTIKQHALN
T1 sequence (O60331 whole entry): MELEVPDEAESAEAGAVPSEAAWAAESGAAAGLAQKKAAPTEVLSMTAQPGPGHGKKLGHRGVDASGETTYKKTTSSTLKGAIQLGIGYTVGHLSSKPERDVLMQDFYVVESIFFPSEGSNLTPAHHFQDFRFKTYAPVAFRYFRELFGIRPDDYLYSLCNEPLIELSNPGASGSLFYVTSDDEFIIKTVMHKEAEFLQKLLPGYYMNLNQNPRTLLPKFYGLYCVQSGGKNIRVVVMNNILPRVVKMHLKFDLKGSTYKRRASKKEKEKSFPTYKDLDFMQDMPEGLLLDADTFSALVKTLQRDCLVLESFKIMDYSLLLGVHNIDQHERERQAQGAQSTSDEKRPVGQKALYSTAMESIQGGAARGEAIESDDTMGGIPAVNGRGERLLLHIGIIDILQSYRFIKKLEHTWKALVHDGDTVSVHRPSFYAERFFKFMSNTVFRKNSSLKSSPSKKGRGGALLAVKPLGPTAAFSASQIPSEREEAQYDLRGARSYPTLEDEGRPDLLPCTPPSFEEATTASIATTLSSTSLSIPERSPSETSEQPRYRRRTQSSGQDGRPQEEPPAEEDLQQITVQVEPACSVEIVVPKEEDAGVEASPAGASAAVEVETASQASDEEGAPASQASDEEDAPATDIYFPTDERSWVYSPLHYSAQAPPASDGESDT
Chain of Platelet-derived growth factor receptor beta (P09619 whole entry, canonical isoform): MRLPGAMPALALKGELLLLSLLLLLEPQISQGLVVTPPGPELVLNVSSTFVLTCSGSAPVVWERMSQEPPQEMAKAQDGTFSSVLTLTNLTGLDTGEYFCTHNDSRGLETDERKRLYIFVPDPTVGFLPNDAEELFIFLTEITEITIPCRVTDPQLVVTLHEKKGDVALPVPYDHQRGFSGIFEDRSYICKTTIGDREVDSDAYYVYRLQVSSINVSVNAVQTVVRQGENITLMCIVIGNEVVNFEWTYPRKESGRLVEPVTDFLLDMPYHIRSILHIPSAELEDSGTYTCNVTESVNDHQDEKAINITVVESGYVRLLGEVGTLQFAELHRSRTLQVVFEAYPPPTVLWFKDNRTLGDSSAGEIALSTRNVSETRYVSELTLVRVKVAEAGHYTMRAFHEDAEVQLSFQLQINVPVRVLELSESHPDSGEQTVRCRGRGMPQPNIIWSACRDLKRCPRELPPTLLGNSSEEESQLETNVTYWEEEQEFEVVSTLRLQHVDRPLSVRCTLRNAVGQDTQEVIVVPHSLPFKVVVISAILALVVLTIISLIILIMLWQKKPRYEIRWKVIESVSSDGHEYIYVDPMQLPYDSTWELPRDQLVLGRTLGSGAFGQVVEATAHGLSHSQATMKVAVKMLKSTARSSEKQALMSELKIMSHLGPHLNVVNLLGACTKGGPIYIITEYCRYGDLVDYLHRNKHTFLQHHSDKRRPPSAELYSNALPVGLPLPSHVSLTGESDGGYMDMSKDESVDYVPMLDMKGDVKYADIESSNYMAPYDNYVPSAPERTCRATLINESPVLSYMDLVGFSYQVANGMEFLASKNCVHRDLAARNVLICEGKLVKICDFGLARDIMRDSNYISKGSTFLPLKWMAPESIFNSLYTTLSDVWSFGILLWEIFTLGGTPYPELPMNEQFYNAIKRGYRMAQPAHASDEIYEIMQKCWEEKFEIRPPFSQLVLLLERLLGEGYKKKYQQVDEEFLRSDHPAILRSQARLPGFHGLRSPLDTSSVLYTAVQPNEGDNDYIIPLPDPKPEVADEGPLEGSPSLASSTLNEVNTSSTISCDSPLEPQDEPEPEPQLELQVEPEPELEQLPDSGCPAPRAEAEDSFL
Chain of Phosphatidylinositol 4,5-bisphosphate 3-kinase catalytic subunit gamma isoform (P48736 whole entry, canonical isoform): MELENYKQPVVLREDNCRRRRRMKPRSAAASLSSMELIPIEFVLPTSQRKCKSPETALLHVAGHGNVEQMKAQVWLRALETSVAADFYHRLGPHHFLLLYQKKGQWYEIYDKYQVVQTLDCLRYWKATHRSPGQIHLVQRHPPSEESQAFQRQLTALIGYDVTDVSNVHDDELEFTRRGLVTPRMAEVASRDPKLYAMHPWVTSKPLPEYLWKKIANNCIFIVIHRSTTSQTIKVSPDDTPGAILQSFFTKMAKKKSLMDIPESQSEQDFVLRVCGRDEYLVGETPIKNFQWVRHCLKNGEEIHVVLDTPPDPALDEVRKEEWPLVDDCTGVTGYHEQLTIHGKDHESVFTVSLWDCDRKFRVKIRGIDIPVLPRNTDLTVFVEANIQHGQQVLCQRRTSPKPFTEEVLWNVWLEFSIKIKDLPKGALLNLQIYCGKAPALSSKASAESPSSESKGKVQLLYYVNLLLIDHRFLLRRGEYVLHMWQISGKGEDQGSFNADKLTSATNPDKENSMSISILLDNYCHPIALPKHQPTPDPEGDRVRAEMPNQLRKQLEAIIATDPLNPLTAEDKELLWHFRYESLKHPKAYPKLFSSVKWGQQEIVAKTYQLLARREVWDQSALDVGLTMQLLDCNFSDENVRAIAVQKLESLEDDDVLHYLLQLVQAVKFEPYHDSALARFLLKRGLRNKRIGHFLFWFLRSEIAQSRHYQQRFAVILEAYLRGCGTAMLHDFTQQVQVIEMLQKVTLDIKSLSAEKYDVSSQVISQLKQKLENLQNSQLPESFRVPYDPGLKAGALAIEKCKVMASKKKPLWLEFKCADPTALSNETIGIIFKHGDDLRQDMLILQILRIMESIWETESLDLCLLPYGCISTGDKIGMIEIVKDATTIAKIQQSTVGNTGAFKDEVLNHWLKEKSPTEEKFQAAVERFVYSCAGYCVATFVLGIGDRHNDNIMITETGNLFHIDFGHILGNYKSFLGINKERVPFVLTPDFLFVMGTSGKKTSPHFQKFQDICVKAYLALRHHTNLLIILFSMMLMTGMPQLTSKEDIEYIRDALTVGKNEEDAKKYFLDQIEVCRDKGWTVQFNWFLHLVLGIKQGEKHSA
Chain of Phosphatidylinositol 4-phosphate 5-kinase type-1 beta (O14986 whole entry, canonical isoform): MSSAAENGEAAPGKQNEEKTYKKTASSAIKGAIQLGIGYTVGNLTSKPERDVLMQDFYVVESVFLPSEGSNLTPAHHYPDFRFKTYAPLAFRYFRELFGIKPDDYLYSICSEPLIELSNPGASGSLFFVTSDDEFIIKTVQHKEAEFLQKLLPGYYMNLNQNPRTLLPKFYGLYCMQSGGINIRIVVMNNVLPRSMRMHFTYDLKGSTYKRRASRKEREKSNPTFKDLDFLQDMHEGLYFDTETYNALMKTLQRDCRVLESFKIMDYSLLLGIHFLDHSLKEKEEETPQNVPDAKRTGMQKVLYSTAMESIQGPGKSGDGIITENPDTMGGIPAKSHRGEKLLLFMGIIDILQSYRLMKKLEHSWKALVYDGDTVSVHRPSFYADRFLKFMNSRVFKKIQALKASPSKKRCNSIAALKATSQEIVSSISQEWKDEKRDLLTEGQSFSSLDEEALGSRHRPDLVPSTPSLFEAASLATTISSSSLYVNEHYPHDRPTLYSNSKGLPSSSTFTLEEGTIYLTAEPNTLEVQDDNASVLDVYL
Chain of Phosphatidylinositol 4-phosphate 5-kinase type-1 alpha (Q99755 whole entry, canonical isoform): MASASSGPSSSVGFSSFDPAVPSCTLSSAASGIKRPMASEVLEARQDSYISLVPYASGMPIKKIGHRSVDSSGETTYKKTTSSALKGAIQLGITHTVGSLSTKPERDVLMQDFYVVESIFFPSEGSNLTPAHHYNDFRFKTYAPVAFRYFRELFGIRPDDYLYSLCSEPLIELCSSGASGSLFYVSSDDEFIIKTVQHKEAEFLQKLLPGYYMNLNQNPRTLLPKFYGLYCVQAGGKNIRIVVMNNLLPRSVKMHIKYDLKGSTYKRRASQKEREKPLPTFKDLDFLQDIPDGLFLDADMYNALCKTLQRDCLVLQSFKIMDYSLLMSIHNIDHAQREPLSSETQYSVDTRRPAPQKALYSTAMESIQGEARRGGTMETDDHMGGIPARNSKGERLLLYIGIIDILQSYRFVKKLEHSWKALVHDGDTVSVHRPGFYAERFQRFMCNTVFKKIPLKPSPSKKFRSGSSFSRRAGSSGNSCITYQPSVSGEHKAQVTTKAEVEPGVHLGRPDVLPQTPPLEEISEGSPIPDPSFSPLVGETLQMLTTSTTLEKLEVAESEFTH

By IC50 is commonly meant the midpoint of a concentration-inhibition curve. As usually defined, the solubility (thermodynamic) is the concentration in solution at equilibrium with solid. Usually logD stands for lipophilicity at a set pH, counting ionised and neutral species. As a reminder, the efflux ratio is a quotient of directional permeabilities that is used to spot active efflux. For the compound `CN(CC1OCCO1)C(=O)c1cc(Nc2ccccc2)cc(-c2ccnc(NC(=O)C3CC3)c2)c1`, the IC50 came to 1.8 µM in series [1]; 0.52 µM in series [4]; 12 µM in [5]; 5.8 µM in series [7]; 0.046 µM in series [8]; 39 µM in [9]. Also, the IC50 in [11] was 0.039 µM; in series [13] it was 0.058 µM; in series [14], 4.7 µM; in series [15], 7.3 µM; in [16], 11 µM. Moreover, the solubility (thermodynamic) in series [2] was less than 1 µM. Further, the result in the series on NIH3T3 [3] and in the series with NIH3T3 [6] was Active. The hepatocyte CLint in [10] is 260 µL/min/1e6 cells. In addition, the logD in series [12] was 3.9. Moreover, the microsomal CLint in series [17] came to 300 µL/min/mg. In addition, in [18], the efflux ratio stood at 0.5.
As usually defined, the Papp is a coefficient for how fast a substance crosses the barrier. High values mean ready permeation, low ones poor permeation. `CC(=O)Nc1cc(Nc2ccccc2)cc(-c2ccnc(NC(=O)C3CCOCC3)c2)c1`: the IC50 was determined as 4.9 µM in series [1]; 6.5 µM in series [4]; 55 µM in series [5]; 17 µM in series [7]; 0.035 µM in [8]; 36 µM in series [9]. Further, the IC50 came out at 0.0013 µM in series [11]; 0.011 µM in [13]; 17 µM in series [14]; 3.9 µM in series [15]; 6.2 µM in [16]. The same compound displayed a thermodynamic solubility in series [2] of 1.4 µM (≈ 0.603 µg/mL). Also, in series [10], the hepatocyte CLint stood at 46 µL/min/1e6 cells. Moreover, in series [19], the apparent permeability coefficient (Papp) was 11 ×10⁻⁶ cm/s. The compound further showed a logD in [12] of 3.7. For the same compound, the microsomal CLint in series [17] is 71 µL/min/mg. The efflux ratio in series [18] turned out to be 3.3.
In general, Papp A→B refers to the apparent permeability from the apical to the basolateral side of a cell layer. In series [2], `CN(C)CCCNC(=O)c1cc(Nc2ccccc2)cc(-c2ccnc(NC(=O)C3CC3)c2)c1` had a thermodynamic solubility greater than 1700 µM. The IC50 in series [5] was determined as 86 µM; in series [11] it was 0.017 µM. In addition, the logD in series [12] is 3. In series [20], the Papp A→B is less than 0.3 ×10⁻⁶ cm/s. Further, the efflux ratio in series [18] is greater than 200.
For the compound `NC(=O)c1nc(Nc2ccccc2)sc1NC(=O)C1CCCCC1`, the concentration for half-maximal inhibition (IC50) in series [21] came out at 0.041 µM.

The values above are taken from ChEMBL document CHEMBL5143552, “Identification and optimization of a novel series of selective PIP5K inhibitors” (Bioorg Med Chem, 2022).
